The values below come from publication PMC12069643, “Structural insights into the selective recognition of RF-amide peptides by neuropeptide FF receptor 2” (EMBO Reports, 2025).

Assay [1] has as its target T1, human NPFFR2 (Homo sapiens, UniProt Q9Y5X5).
T1 construct: expressed in transfected cells; host or cells: HEK293T (pcDNA3.1 NPFFR2)
Nature of the assay: GloSensor forskolin-stimulated cAMP assay, NPFFR2 wild-type. The assay is classed as cell-based. Conditions: NPFFR2 wild-type (100% DNA treated for hNPSF), HEK293T, 0.5 μM forskolin; for Emax: HEK-293T, mean of three independent experiments ± SEM; for EC50: three independent experiments. The protocol: Figure 1 Structural analysis and downstream signaling of NPFFR2. (A) The concentration-dependent response of various agonists on NPFFR2 is measured using a forskolin-stimulated cAMP assay. Data points represent mean values from three independent experiments (each with technical triplicate), with error bars indicating SEM (standard error of the mean). Raw data were normalized to the vehicle-treated (0%) and 0.5 μM forskolin-treated (100%) responses. […] (C) The extracellular loop 2 (ECL2, pink) and N-terminus (Nt, blue) of NPFFR2 are depicted using a cartoon model. […] Source data are available online for this figure.
(§1) HEK293T cells were seeded at a density of 6 × 10^5 cells per well in a six-well cell culture plate (SPL) and co-transfected with expression plasmids encoding GloSensor™ and each NPFFR construct, using 1 µg to 4 µg of DNA per well according to the Lipofectamine™ 2000 Transfection Reagent (Invitrogen) protocol. After 48 h of incubation under standard conditions (37 °C, 5% CO2), the cells were detached using Accutase solution (Sigma-Aldrich) and washed with PBS. The cells were then pelleted by centrifugation, resuspended in CO2-independent medium (Gibco) supplemented with Firefly D-Luciferin (0.5 mg/ml, NanoLight), and distributed into a 96-well white plate (SPL). After a 2-hour incubation, serially diluted ligands and 0.5 μM forskolin were added to each well to detect ligand-induced signaling. Luminescence signals were measured using a Mithras LB940 instrument (Berthold) with a measurement time of 1 s per well.
(§2) Data from the GloSensor^TM cAMP signaling assays were analyzed using GraphPad Prism with a three-parameter logistic model to fit concentration-response curves for both wild-type (WT) and mutant receptors. Mutant expression levels and DNA amounts were adjusted to match WT conditions. ΔpEC50 values were calculated by subtracting the log EC50 of the WT receptor from that of each mutant. Results are presented as mean ± SEM from three independent biological replicates, each performed in duplicate or more. Error bars represent the SEM. Statistical significance was assessed using one-way ANOVA, followed by Dunnett’s tests comparisons to the WT receptor. Significance levels were reported as follows: ns (not significant, P > 0.05); *P < 0.05; **P < 0.01; ***P < 0.001.
On the technique in general: Changes in cAMP serve as a functional read-out for many G protein-coupled receptors.

Assay [2] addresses T2, human NPFFR1 (Homo sapiens, UniProt Q9GZQ6).
T2 construct: expressed in transfected cells; host or cells: HEK293T (pcDNA3.1 NPFFR1)
Nature of the assay: GloSensor forskolin-stimulated cAMP assay, NPFFR1 wild-type. The assay is classed as cell-based. Conditions: for Emax: HEK-293T, read-out: Emax ± SEM. On the procedure: Figure 4 RF-amide ligand selectivity of NPFFR2 and NPFFR1. […] Key residues at the fifth and sixth positions from the C-terminus, are highlighted in bold. […] (B) The concentration-dependent response of various agonists on NPFFR1 was measured using a forskolin-stimulated cAMP assay. Data points represent the mean values from three independent experiments (each with technical triplicate), with error bars indicating SEM. Raw data were normalized to the vehicle-treated (0%) and 0.5 μM forskolin-treated (100%) responses. (C) Structural comparison between the binding modes of hNPSF to NPFFR2 and GnIH to NPFFR1. An AlphaFold2 prediction model of the GnIH–NPFFR1 complex was generated using the hNPSF–NPFFR2 complex structure as a template. The hydrophobicity of NPFFRs is shown with surface representation, where purple indicates hydrophilic regions and bronze indicates hydrophobic regions. […] (D) The cAMP response to the ligands hNPSF and GnIH was measured for both wild-type NPFFR1 and a mutant form of NPFFR1 using a forskolin-stimulated cAMP assay. […] Symbols represent mean values from three independent experiments, each conducted in technical triplicates, with error bars indicating SEM. Responses were normalized to vehicle-treated controls (0%) and 0.5 μM forskolin-treated controls (100%). Source data are available online for this figure.
as §1, §2

Assay [3] addresses NPFFR1 mutant (Q37^NtL, I293^6.58S, and T307^7.31N) (UniProt Q9GZQ6).
The target in assay [4] is T3, NPFFR1-chimera (Q37^NtL/I293^6.58S/T307^7.31N) (Homo sapiens, UniProt Q9GZQ6, I293S/Q37L/T307N).
T3 construct: expressed in transfected cells; host or cells: HEK293T
T3 sequence (Q9GZQ6 whole entry Q37L/I293S/T307N): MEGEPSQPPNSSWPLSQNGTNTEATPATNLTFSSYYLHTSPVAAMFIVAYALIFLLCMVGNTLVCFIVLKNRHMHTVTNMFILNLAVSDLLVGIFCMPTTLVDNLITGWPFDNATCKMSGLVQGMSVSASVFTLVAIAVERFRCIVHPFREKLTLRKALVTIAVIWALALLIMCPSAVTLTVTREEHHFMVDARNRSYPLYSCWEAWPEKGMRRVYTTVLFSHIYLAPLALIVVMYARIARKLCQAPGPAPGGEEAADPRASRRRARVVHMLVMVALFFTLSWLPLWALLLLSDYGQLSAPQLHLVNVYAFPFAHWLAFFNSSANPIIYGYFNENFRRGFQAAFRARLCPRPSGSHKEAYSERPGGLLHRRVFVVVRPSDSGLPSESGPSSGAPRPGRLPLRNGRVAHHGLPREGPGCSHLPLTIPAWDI
Nature of the assay: GloSensor forskolin-stimulated cAMP assay, NPFFR1 triple mutant (chimera Q37NtL/I2936.58S/T3077.31N). In kind it is cell-based. The note with it: HEK293T, 0.5 μM forskolin, three independent experiments. The protocol:
Figure 4 RF-amide ligand selectivity of NPFFR2 and NPFFR1. (A) Sequence alignment between human NPFFs and RFRPs, the endogenous ligands of NPFFRs, which share PXRF-NH2 motif at their C-terminus (shown in green letters). Key residues at the fifth and sixth positions from the C-terminus, are highlighted in bold. […] (B) The concentration-dependent response of various agonists on NPFFR1 was measured using a forskolin-stimulated cAMP assay. Data points represent the mean values from three independent experiments (each with technical triplicate), with error bars indicating SEM. Raw data were normalized to the vehicle-treated (0%) and 0.5 μM forskolin-treated (100%) responses. (C) Structural comparison between the binding modes of hNPSF to NPFFR2 and GnIH to NPFFR1. An AlphaFold2 prediction model of the GnIH–NPFFR1 complex was generated using the hNPSF–NPFFR2 complex structure as a template. The hydrophobicity of NPFFRs is shown with surface representation, where purple indicates hydrophilic regions and bronze indicates hydrophobic regions. […] (D) The cAMP response to the ligands hNPSF and GnIH was measured for both wild-type NPFFR1 and a mutant form of NPFFR1 using a forskolin-stimulated cAMP assay. […] Symbols represent mean values from three independent experiments, each conducted in technical triplicates, with error bars indicating SEM. Responses were normalized to vehicle-treated controls (0%) and 0.5 μM forskolin-treated controls (100%). Source data are available online for this figure.
To further validate whether these specific residues in NPFFR1 affect ligand selectivity, we generated a triple mutant of NPFFR1, in which residues Q37^Nt, I293^6.58, and T307^7.31 of NPFFR1 were replaced by the corresponding NPFFR2 residues, Leu, Ser, and Asn, respectively (Appendix Fig. S10). […]
HEK293T cells were seeded at a density of 6 × 10^5 cells per well in a six-well cell culture plate (SPL) and co-transfected with expression plasmids encoding GloSensor™ and each NPFFR construct, using 1 µg to 4 µg of DNA per well according to the Lipofectamine™ 2000 Transfection Reagent (Invitrogen) protocol. […] Luminescence signals were measured using a Mithras LB940 instrument (Berthold) with a measurement time of 1 s per well.
Data from the GloSensor^TM cAMP signaling assays were analyzed using GraphPad Prism with a three-parameter logistic model to fit concentration-response curves for both wild-type (WT) and mutant receptors. Mutant expression levels and DNA amounts were adjusted to match WT conditions. ΔpEC50 values were calculated by subtracting the log EC50 of the WT receptor from that of each mutant. […] Statistical significance was assessed using one-way ANOVA, followed by Dunnett’s tests comparisons to the WT receptor. […]

For assay [5], the target named is NPFFR1 mutant (Q37^NtL, I293^6.58S, and T307^7.31N) (UniProt Q9GZQ6 1-430, Q37^NtL | I293^6.58S | T307^7.31N). Briefly: cell-based or functional assay.
NPFFR1 mutant (Q37^NtL, I293^6.58S, and T307^7.31N) (UniProt Q9GZQ6 1-430, Q37^NtL | I293^6.58S | T307^7.31N), sequence (Q9GZQ6 other isoform, or with tags, fused parts or gaps with the stated changes): as the sequence (Q9GZQ6 whole entry Q37L/I293S/T307N) above
Assay [6] addresses T4, human Neuropeptide FF Receptor 2 (8-420) (human, UniProt Q9Y5X5-2 8-420).
T4 construct: human NPFFR2, residues 8-420; GFP tag cut off with HRV3C protease while the complex was assembled; the 8xHis tag follows GFP; In the final model the N-terminal 24 residues and the residues beyond 348 are missing; also called NPFFR2; NPFF receptor 2; source: Sf9, purified (Ni-NTA; in LMNG/CHS); not shown: FLAG, N-terminal, kept; GFP, C-terminal, cleaved; His8, C-terminal, cleaved
Briefly: cryo-EM structure; purified NPFFR2, Gi heterotrimer and scFv16 mixed 1:1.5:2 with 0.01 mM hNPSF, HRV3C protease and apyrase, overnight at 4 °C; M1 anti-FLAG column and SEC in 20 mM Tris-Cl pH 8.0, 150 mM NaCl, LMNG/CHS, 100 nM hNPSF; global resolution 3.2 Å. Conditions: both partners purified.

Like-named read-outs stand apart in the source and are kept apart here. Ends that are not written are not given here.

T1 sequence (Q9Y5X5 103-522): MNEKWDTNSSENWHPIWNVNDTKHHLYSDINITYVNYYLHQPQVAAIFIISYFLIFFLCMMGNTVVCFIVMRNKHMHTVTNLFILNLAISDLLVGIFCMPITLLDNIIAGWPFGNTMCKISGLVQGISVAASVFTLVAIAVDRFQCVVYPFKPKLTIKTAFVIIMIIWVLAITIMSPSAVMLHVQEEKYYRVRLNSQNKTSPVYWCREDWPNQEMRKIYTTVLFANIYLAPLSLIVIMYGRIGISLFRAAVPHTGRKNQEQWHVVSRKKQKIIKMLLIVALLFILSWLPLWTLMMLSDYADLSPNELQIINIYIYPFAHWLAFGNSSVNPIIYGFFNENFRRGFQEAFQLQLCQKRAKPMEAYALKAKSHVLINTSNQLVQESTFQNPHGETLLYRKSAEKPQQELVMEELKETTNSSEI
T2 sequence (Q9GZQ6 whole entry): as the sequence (Q9GZQ6 whole entry Q37L/I293S/T307N) above, with L37Q, S293I, N307T counted along it
T4 sequence (Q9Y5X5 110-522): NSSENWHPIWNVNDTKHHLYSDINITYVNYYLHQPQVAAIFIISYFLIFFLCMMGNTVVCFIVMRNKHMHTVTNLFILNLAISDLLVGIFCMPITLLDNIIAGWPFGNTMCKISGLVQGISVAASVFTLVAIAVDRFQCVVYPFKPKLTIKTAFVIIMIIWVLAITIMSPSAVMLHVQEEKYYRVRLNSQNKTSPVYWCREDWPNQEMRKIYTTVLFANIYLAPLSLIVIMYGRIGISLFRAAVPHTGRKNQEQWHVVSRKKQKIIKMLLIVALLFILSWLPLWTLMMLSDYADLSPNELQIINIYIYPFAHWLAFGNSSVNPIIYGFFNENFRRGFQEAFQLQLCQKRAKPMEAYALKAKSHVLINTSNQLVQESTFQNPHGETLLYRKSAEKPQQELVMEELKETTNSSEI
NPFFR1 mutant (Q37^NtL, I293^6.58S, and T307^7.31N) (UniProt Q9GZQ6), sequence (Q9GZQ6 other isoform, or with tags, fused parts or gaps mutant): as the sequence (Q9GZQ6 whole entry Q37L/I293S/T307N) above

On to `CC(C)C[C@H](NC(=O)[C@H](CC(N)=O)NC(=O)[C@@H]1CCCN1C(=O)[C@@H](N)C(C)C)C(=O)N1CCC[C@H]1C(=O)N[C@@H](CCC(N)=O)C(=O)N[C@@H](CCCNC(=N)N)C(=O)N[C@@H](Cc1ccccc1)C(N)=O` [NPVF], for which, in assay [1], the Emax (commonly the size of the effect at its maximum, as opposed to the concentration needed) is 78 ± 3% and the EC50 is 631 nM.

For AGEGLNSQFWSLAAPQRF-NH2 [NPAF], the Emax in assay [1] is 80 ± 2%; in assay [2] it was 83 ± 3%. The results for the EC50 in assay [1] and in assay [2] were 6.31 nM and 200 nM, respectively.

In turn, GnIH/RFRP-3 (peptide) had a fold decrease in forskolin-stimulated cAMP assay (GloSensor, HEK293T): response to GnIH, against wild-type NPFFR1 in assay [3] of 30 fold.

Turning to “MPHSFANLPLRF-NH2 [GnIH] [listing 1 of 2 here]”, the Emax stood at 81 ± 2% in assay [1]; 80 ± 3% in assay [2] (NPFFR1 wild-type, HEK293T, 0.5 μM forskolin, three independent experiments); 80 ± 2% in assay [4] (HEK-293T).

In the case of “MPHSFANLPLRF-NH2 [GnIH] [listing 2 of 2 here]”, the EC50 in assay [1] is 158 nM; in assay [2] (NPFFR1 wild-type, HEK293T, 0.5 μM forskolin, three independent experiments, read-out: pEC50 ± SEM (converted)), 3.16 nM; in assay [4], 100 nM.

B1: human NPSF (SQAFLFQPQRF-NH2) (peptide)
peptide: SQAFLFQPQRF-NH2
notes: human form of NPSF (SQA-NPFF), an RF-amide peptide of the NPFF series; also called hNPSF; SQA-NPFF; source: synthetic peptide; bought: Cusabio (custom order)
B1: the “forskolin-stimulated cAMP assay (GloSensor, HEK293T): response to hNPSF, against wild-type NPFFR1” value in assay [5] was roughly 2 fold. For the same molecule, in assay [6], the binding result is “binds”.
